Results from US12448425B2, “Therapeutic peptides” (Board of Regents, The University of Texas System, priority 2019, dated 2025).

What was measured:
EphB4 and Crk1 = assay: Phosphorylation of EphB4 and Crk1 in A2780cp20 cells (IP/immunoblot); format: cell-based, human
Protocol: FIGS. 2A-C: BIDEN-AP acts as an EphB4 agonist. (FIG. 2A) BIDEN-AP induced phosphorylation of EphB4 and the associated […] (Crk1). After 16 h serum starvation, A2780cp20 cells were incubated with EFNB2-Fc (20 nM), TNYL-RAW (SEQ ID NO: 12) (50 μM), or BIDEN-AP (50 μM) for 30 min or 2 h. The uncropped blots were available at Supplemental FIG. 11. (FIG. 2B) BIDEN-AP inhibited A2780cp20 cell invasion compared to untreated control (CTL). A modified Boyden transwell chamber coated with human defined matrigel was used. Experiments were performed in triplicate. Data are presented as mean±SD. ***p<0.001. (FIG. 2C) Alexa647-BIDEN-AP was internalized via receptor-mediated endocytosis. A2780cp20 cells were incubated at 37° C. with Alexa647-BIDEN-AP (0.05 μM), Alexa647-TNYL-RAW (SEQ ID NO: 12) (0.05 μM), or Alexa647-BIDEN-AP (0.05 μM) plus unlabeled TNYL-RAW (SEQ ID NO: 12) (5 μM, blocking). Alexa647-BIDEN-AP but not Alexa647-TNYL-RAW (SEQ ID NO: 12) was internalized into the A2780cp20 cells.
Total protein lysates were harvested and subjected to Nupage-SDS separation followed by immunoblotting. […] CTL, untreated control. The uncropped blots were available at Supplemental FIG. 11.
Immunoblotting, immunoprecipitation, and co-immunoprecipitation. […] The protein concentrations were determined by using a BCA Protein Assay Reagent kit (Pierce Biotechnology, Rockford, IL). […]

A2780cp20-Luc tumors = assay: Orthotopic A2780cp20-Luc ovarian cancer model; format: in vivo, mouse
Text: Female nude mice were intraperitoneally (i.p.) inoculated with […] tumor cells. […] Tumor growth was monitored by bioluminescence imaging (IVIS). […] CTL, untreated control.
Orthotopic ovarian cancer models. […] For all therapeutic experiments, groups of the mice (n=8-10) were inoculated intraperitoneally with A2780cp20-Luc cells. […] Untreated mice were used as a control.
Immunoblotting, immunoprecipitation, and co-immunoprecipitation. For immunoblotting, lysates from cultured cells were prepared using modified radioimmunoprecipitation assay (RIPA) buffer (50 mM Tris-HCl [pH 7.4], 150 mM NaCl, 1% Triton, 0.5% deoxycholate) plus 25 μg/mL leupeptin, 10 μg/mL aprotinin, 2 mM EDTA, and 1 mM sodium orthovanadate. To prepare lysates of snap-frozen tissue from mice, approximately 30-mm^3 cuts of tissue were disrupted with a tissue homogenizer and subjected to centrifugation at 13,000 rpm for 30 min in modified RIPA buffer. The protein concentrations were determined by using a BCA Protein Assay Reagent kit (Pierce Biotechnology, Rockford, IL). Lysates were loaded and separated by 8% sodium dodecyl sulfate (SDS)-polyacrylamide gel electrophoresis (PAGE). Proteins were transferred to a nitrocellulose membrane by semidry electrophoresis (Bio-Rad Laboratories, Hercules, CA) overnight, blocked with 3% BSA for 1 h, and then incubated at 4° C. with primary antibody overnight. After washing with a mixture of tris-buffered saline and Tween 20 (TBST) solutions, the membranes were incubated with horseradish peroxidase (HRP)-conjugated horse anti-mouse IgG (1:2000, GE Healthcare, Amersham Place, UK) for 2 h. HRP was visualized by an enhanced chemoluminescence detection kit (Pierce). […] Densitometry was performed using ImageJ software. For immunoprecipitation and co-immunoprecipitation, cells were subjected to lysis in non-denaturing NP40 cell lysis buffer (Cell Signaling Technology, Boston, MA). The extracts were incubated with A/G-conjugated antibody at 4° C. for 2 h, and for immunoprecipitation the beads were washed twice with RIPA buffer, once with 0.5 m LiCl in 0.1 m Tris (pH 8.0), and once with PBS. Reactions were boiled in sample buffer, and proteins were then subjected to 10% SDS-PAGE and immunoblotting.
Immunofluorescence analysis of CD31 was performed on 5-μm-thick fresh-frozen tissue samples. After deblocking with acetone, acetone-chloroform (1:1), and acetone for 5 min, non-specific binding was blocked with 4% fish gelatin (Biotium Inc, Hayward, CA) in PBS for 30 min.
Immunohistochemistry (IHC) analysis.

CCPM-BIDEN-AP: nano-conjugate of Cys-BIDEN-AP on core-crosslinked polymeric micelles via maleimide (GMBS) (CTNYLFSPNGPIARAW; D-residues)
phosphorylation of EphB4 and Crk1 in vitro (EphB4 and Crk1): induce EphB4 and Crk1 phosphorylation
bioluminescence signal intensity (A2780cp20-Luc tumors; day 28, 13 mg/kg/injection i.p., 10 doses): significantly reduced the bioluminescence signal intensity
metastatic nodules, comparison of the two agents (A2780cp20-Luc tumors; day 31): reduced metastatic nodules to a greater extent than BIDEN-AP
tumor growth in the peritoneum (tumor weight, number of metastatic nodules) (A2780cp20-Luc tumors; day 31, 13 mg/kg/injection i.p., 10 doses): significantly reduced tumor growth
apoptotic cell death in CD31 endothelial vasculature (TUNEL) (A2780cp20-Luc tumors; excised tumors): induced apoptotic cell death
tumor cell proliferation (Ki67-positive cells) (A2780cp20-Luc tumors; excised tumors): significantly reduced tumor cell proliferation
microvessel density (MVD) (A2780cp20-Luc tumors; excised tumors, CD31): decreased microvessel density
EphB4 and Crk1 phosphorylation in vivo (A2780cp20-Luc tumors; orthotopic A2780cp20 tumors): induce EphB4 and Crk1 phosphorylation
